Experiment [1] concerns the target T1, menin/MLL (Gal4-Menin and MLL1-46-VP16) in HEK293 cells (Homo sapiens, UniProt O00255).
T1 construct: expressed in transfected cells; host or cells: HEK293 (ATCC)
The experiment is described as follows: Mammalian cellular two-hybrid assay in HEK293 cells (Assay 2, cell assay). The class given is cell-based. To be noted: Gal4-Menin/MLL1-46-VP16 two-hybrid, NanoLuc luciferase reporter, 16-18 h. Here is the method: Potencies of inhibitor compounds against menin/MLL were tested in a mammalian cellular two-hybrid assay system. HEK293 cells (American Type Culture Collection (ATCC); Manassas, Va.) were co-transfected with three plasmids: one encoding Gal4-Menin (200 ng per 10^6 cells), another encoding MLL1-46-VP16 (100 ng per 10^6 cells), and a reporter plasmid pNL3.3-4×UAS (500 ng per 10^6 cells) encoding secreted NanoLuc® luciferase (Promega) with the upstream 4×UAS repeats for Gal4 binding. Transfection was performed in Opti-MEM® media using Lipofectamine® LTX with Plus™ Reagent (ThermoFisher Scientific) according to manufacturer's protocol. Cells were incubated with transfection reagents at 37° C. 5% CO2 for 5-6 h, harvested by trypsinization and centrifugation at 300×g for 5 min and resuspended in Gibco® DMEM media (phenol red-free, no antibiotics) containing 10% delipidated fetal bovine serum (FBS) (ThermoFisher Scientific). Concentration of cells in the media was adjusted to 3.5×10^5 cells/ml, and 100 μl of the cell suspension was dispensed into each well of 96-well Costar™ black clear bottom cell culture plates (Fisher Scientific). Tested compounds were added as 100 μL of 2× solutions in the media. Final concentration of DMSO was 0.1% in all wells. The cells were incubated with tested compounds at 37° C. 5% CO2 for 16-18 h. At the end of the incubation, 40 μL of the conditioned media from each well was transferred into each well of 96-well Costar™ black half-area plates (Fisher Scientific), to which 40 μl of 2× reconstituted NanoGlo® luciferase assay reagent (Promega) was added and thoroughly mixed on a microshaker for 2-3 min. Remaining media in the culture plates was removed by emptying the wells and blotting the plates on filter paper. The cells were lysed with 1× CellTiter-Glo® Luminescent Cell Viability Assay reagent (Promega) for assessing toxicity of the tested compounds. Both, Nano-Glo® and CellTiter-Glo® luminescence intensities were measured on EnVision® multilabel plate reader (PerkinElmer). Percent inhibition values were calculated based on Nano-Glo® luciferase activity observed with the tested compounds vs. DMSO control and commercially available menin inhibitor MI-2-2 (4-(4-(5,5-Dimethyl-4,5-dihydrothiazol-2-yl)piperazin-1-yl)-6-(2,2,2-trifluoroethyl)thieno[2,3-d]pyrimidine) (EMD Millipore, Cat. No. 444825) incubated with cells at 5 μM. These percent inhibition values were regressed against compound concentrations in the assay using non-linear 4-parameter logit curve fitting (XLFit, IDBS). Half maximal inhibitory concentrations (IC50) were calculated as the parameters of the fit corresponding to the inflection points on semi-logarithmic dose-response curves.
On the technique in general: A reporter such as luciferase makes a cellular process visible.

Experiment [2] concerns the target T2, wild-type menin / MLL-AF9 fusion protein (Homo sapiens, UniProt O00255).
T2 construct: made in house; host or cells: E. coli (menin); HEK293 cleared lysate (MLL-AF9-FLAG)
T2 sequence (O00255 1-610): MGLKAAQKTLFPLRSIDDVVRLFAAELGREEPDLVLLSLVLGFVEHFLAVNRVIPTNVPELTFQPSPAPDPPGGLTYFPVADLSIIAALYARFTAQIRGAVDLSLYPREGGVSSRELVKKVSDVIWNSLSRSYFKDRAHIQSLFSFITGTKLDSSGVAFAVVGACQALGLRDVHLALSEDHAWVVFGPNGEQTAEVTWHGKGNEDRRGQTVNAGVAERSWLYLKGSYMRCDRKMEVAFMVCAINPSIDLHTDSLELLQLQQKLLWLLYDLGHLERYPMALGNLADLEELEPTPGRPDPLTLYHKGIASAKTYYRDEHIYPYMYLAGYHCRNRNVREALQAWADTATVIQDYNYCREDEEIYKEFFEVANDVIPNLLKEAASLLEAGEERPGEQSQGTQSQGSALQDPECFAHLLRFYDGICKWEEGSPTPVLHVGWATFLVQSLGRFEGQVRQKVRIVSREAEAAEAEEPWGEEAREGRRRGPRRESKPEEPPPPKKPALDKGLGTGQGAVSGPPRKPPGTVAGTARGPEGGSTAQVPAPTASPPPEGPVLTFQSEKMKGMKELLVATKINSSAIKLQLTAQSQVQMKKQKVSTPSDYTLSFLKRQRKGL
The experiment is described as follows: AlphaLISA menin/MLL binding assay, wild-type menin (Assay 1). To be noted: biotinylated wild-type menin 5 nM, MLL-AF9-FLAG lysate. Put shortly:
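Biotinylated wild-type or mutated menin (5 nM, E. coli-expressed) was preincubated 30 min at RT with compound and HEK293 lysate containing MLL1-1,396–AF9 1-92–FLAG. Buffer was 50 mM Tris-HCl pH 7.4, 5% DMSO, 50 mM NaCl, 0.01% BSA, 1 mM DTT. Anti-FLAG acceptor and streptavidin donor beads (10 μg/mL each) were then added for 60 min. IC50 came from a four-parameter fit of the Alpha signal inhibition.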
(In Alpha technology, singlet oxygen from a donor bead excites a nearby acceptor bead.)

The results in this text go back to patent publication US20190010167A1, “INHIBITORS OF THE MENIN-MLL INTERACTION” (Vitae Pharmaceuticals, Inc., priority 2015, published 2019).

SMILES strings stand for the structures. Where a name gives a salt, the structure may show the parent alone.

T1 sequence (P04386 1-147 partner limits assumed, species assumed, one chain of several): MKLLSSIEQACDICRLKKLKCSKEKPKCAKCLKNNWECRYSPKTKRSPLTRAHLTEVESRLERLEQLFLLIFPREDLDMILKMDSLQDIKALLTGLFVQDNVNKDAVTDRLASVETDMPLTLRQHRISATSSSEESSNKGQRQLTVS

As a reminder, the IC50 is the point on the concentration scale where inhibition reaches its midpoint. Read a high IC50 as lower potency. In the case of `Cc1c(CN2CCC3(CC2)CN(c2ncnc4sc(CC(F)(F)F)cc24)C3)ccc2[nH]c(C#N)cc12` [Example 96, 4-methyl-5-((2-(6-(2,2,2-trifluoroethyl)thieno[2,3-d]pyrimidin-4-yl)-2,7-diazaspiro[3.5]nonan-7-yl)methyl)-1H-indole-2-carbonitrile hydrochloride], the concentration for half-maximal inhibition (IC50) in experiment [1] and in experiment [2] was under 0.1 µM in each case.
With `CC1(C)CCCC(CN2CC3(C2)CN(c2ncnc4sc(CC(F)(F)F)cc24)C3)C1` (centres unmarked) [Example 65, 4-(6-((3,3-dimethylcyclohexyl)methyl)-2,6-diazaspiro[3.3]heptan-2-yl)-6-(2,2,2-trifluoroethyl)thieno[2,3-d]pyrimidine], the half-maximal inhibitory concentration (IC50) is 0.1 to 1 µM in experiment [1] and under 0.1 µM in experiment [2].
Taken in the same sequence, the figures for `FC(F)(F)Cc1cc2c(N3CCC4(CN(CC5CCOCC5)C4)C3)ncnc2s1` [Example 109, 4-(2-((tetrahydro-2H-pyran-4-yl)methyl)-2,6-diazaspiro[3.4]octan-6-yl)-6-(2,2,2-trifluoroethyl)thieno[2,3-d]pyrimidine] were 0.1 to 1 µM and 0.1 to 1 µM.
Taken in the same sequence, the figures for `Cc1cc(NS(C)(=O)=O)ccc1CN1CCC2(CCN(c3ncnc4sc(CC(F)(F)F)cc34)C2)C1` (centres unmarked) [Example 54, N-(3-methyl-4-((7-(6-(2,2,2-trifluoroethyl)thieno[2,3-d]pyrimidin-4-yl)-2,7-diazaspiro[4.4]nonan-2-yl)methyl)phenyl)methanesulfonamide] were 0.1 to 1 µM and under 0.1 µM.
Taken in the same sequence, the figures for `CC(=O)Nc1ccc(CN2CCC3(CCN(c4ncnc5sc(CC(F)(F)F)cc45)C3)C2)c(F)c1` (centres unmarked) [Example 45, N-(3-fluoro-4-((7-(6-(2,2,2-trifluoroethyl)thieno[2,3-d]pyrimidin-4-yl)-2,7-diazaspiro[4.4]nonan-2-yl)methyl)phenyl)acetamide] were 0.1 to 1 µM and under 0.1 µM.
With `Cc1c(CN2CCC3(CCN(c4ncnc5sc(CC(F)(F)F)cc45)C3)C2)ccc2[nH]c(C#N)cc12` (racemic) [Example 30, 4-methyl-5-((7-(6-(2,2,2-trifluoroethyl)thieno[2,3-d]pyrimidin-4-yl)-2,7-diazaspiro[4.4]nonan-2-yl)methyl)-1H-indole-2-carbonitrile], the IC50 in experiment [1] and in experiment [2] was under 0.1 µM each time.
For `O=c1[nH]c2ccc(CN3CCC4(CCN(c5ncnc6sc(CC(F)(F)F)cc56)C4)C3)cc2n1CCO` (centres unmarked) [Example 120], the values for the IC50 in experiment [1] and in experiment [2] were at least 1 µM and under 0.1 µM, respectively.
For the compound `COC1CCC(CN2CC3(C2)CN(c2ncnc4sc(CC(F)(F)F)cc24)C3)CC1` (centres unmarked) [Example 75, 4-(6-((4-methoxycyclohexyl)methyl)-2,6-diazaspiro[3.3]heptan-2-yl)-6-(2,2,2-trifluoroethyl)thieno[2,3-d]pyrimidine], the IC50 in experiment [1] and in experiment [2] was 0.1 to 1 µM in each case.
Consider `CCC(C)CN1CC2(CCN(c3ncnc4sc(CC(F)(F)F)cc34)CC2)C1` (centres unmarked) [Example 22, 4-(2-(2-methylbutyl)-2,7-diazaspiro[3.5]nonan-7-yl)-6-(2,2,2-trifluoroethyl)thieno[2,3-d]pyrimidine], for which the IC50 in experiment [1] is at least 1 µM; in experiment [2] it was 0.1 to 1 µM.
In the case of `FC(F)(F)Cc1cc2c(N3CC4(CN(CC5CCOCC5)C4)C3)ncnc2s1` [Example 66, 4-(6-((tetrahydro-2H-pyran-4-yl)methyl)-2,6-diazaspiro[3.3]heptan-2-yl)-6-(2,2,2-trifluoroethyl)thieno[2,3-d]pyrimidine], the IC50 in experiment [1] and in experiment [2] was 0.1 to 1 µM each time.
Regarding `CC(=O)Nc1cccc(CN2CCC3(CCN(c4ncnc5sc(CC(F)(F)F)cc45)C3)C2)c1` (centres unmarked) [Example 52, N-(3-((7-(6-(2,2,2-trifluoroethyl)thieno[2,3-d]pyrimidin-4-yl)-2,7-diazaspiro[4.4]nonan-2-yl)methyl)phenyl)acetamide], the half-inhibitory concentration (IC50) in experiment [1] is 0.1 to 1 µM; in experiment [2], under 0.1 µM.
Taken in the same sequence, the figures for `FC(F)(F)Cc1cc2c(N3CCC4(CCN(Cc5ccc6cc[nH]c6c5)C4)C3)ncnc2s1` (centres unmarked) [Example 29, 4-(7-((1H-indol-6-yl)methyl)-2,7-diazaspiro[4.4]nonan-2-yl)-6-(2,2,2-trifluoroethyl)thieno[2,3-d]pyrimidine] were 0.1 to 1 µM and under 0.1 µM.
In the same order, the values of `COC(=O)N[C@H]1CC[C@H](CN2CCC3(CCN(c4ncnc5sc(CC(F)(F)F)cc45)C3)C2)CC1` (some centres unmarked) [Example 46, Methyl ((1r,4r)-4-((7-(6-(2,2,2-trifluoroethyl)thieno[2,3-d]pyrimidin-4-yl)-2,7-diazaspiro[4.4]nonan-2-yl)methyl)cyclohexyl)carbamate] are 0.1 to 1 µM and under 0.1 µM.
On to `CS(=O)(=O)N[C@H]1CC[C@@H](CN2CCC3(CCN(c4ncnc5sc(CC(F)(F)F)cc45)C3)C2)CC1` (some centres unmarked) [Example 49, N-((1s,4s)-4-((7-(6-(2,2,2-trifluoroethyl)thieno[2,3-d]pyrimidin-4-yl)-2,7-diazaspiro[4.4]nonan-2-yl)methyl)cyclohexyl)methanesulfonamide], for which the IC50 was 0.1 to 1 µM in experiment [1] and under 0.1 µM in experiment [2].
Take `FC(F)(F)Cc1cc2c(N3CC4(CCN(CC5CCOCC5)C4)C3)ncnc2s1` [Example 93, 4-(6-((tetrahydro-2H-pyran-4-yl)methyl)-2,6-diazaspiro[3.4]octan-2-yl)-6-(2,2,2-trifluoroethyl)thieno[2,3-d]pyrimidine]: the values for the IC50 in experiment [1] and in experiment [2] were at least 1 µM and under 0.1 µM, respectively.
In the same order, the values of `CC(C)(N)C(=O)N1CCC2(CCN(c3ncnc4sc(CC(F)(F)F)cc34)C2)C1` (centres unmarked) [Example 58, 2-Amino-2-methyl-1-(7-(6-(2,2,2-trifluoroethyl)thieno[2,3-d]pyrimidin-4-yl)-2,7-diazaspiro[4.4]nonan-2-yl)propan-1-one] are 0.1 to 1 µM and 0.1 to 1 µM.
In the same order, the values of `FC(F)(F)Cc1cc2c(N3CC4(CN(CC5CCCC(F)(F)C5)C4)C3)ncnc2s1` (centres unmarked) [Example 63, 4-(6-((3,3-difluorocyclohexyl)methyl)-2,6-diazaspiro[3.3]heptan-2-yl)-6-(2,2,2-trifluoroethyl)thieno[2,3-d]pyrimidine] are 0.1 to 1 µM and under 0.1 µM.
Consider `CS(=O)(=O)Nc1ccc(CN2CCC3(CCN(c4ncnc5sc(CC(F)(F)F)cc45)C3)C2)cc1` (centres unmarked) [Example 38, N-(4-((7-(6-(2,2,2-trifluoroethyl)thieno[2,3-d]pyrimidin-4-yl)-2,7-diazaspiro[4.4]nonan-2-yl)methyl)phenyl)methanesulfonamide], for which the IC50 in experiment [1] is 0.1 to 1 µM; in experiment [2] it was under 0.1 µM.
Taken in the same sequence, the figures for `CC(=O)Nc1ccc(CN2CCC3(CCN(c4ncnc5sc(CC(F)(F)F)cc45)C3)C2)c(C)c1` (centres unmarked) [Example 42, N-(3-methyl-4-((7-(6-(2,2,2-trifluoroethyl)thieno[2,3-d]pyrimidin-4-yl)-2,7-diazaspiro[4.4]nonan-2-yl)methyl)phenyl)acetamide] were 0.1 to 1 µM and under 0.1 µM.
